Assay results as given in PubChem BioAssay AID651677 (The Scripps Research Institute Molecular Screening Center, 2012).
Activity calls are given as the source filed them. No rule for the calls is given here.

These compounds were tested against Perilipin-5 (Homo sapiens) + 1-acylglycerol-3-phosphate O-acyltransferase ABHD5 (Homo sapiens) (UniProt Q00G26+Q8WTS1) (assay: ABHD5-PLIN5 interaction inhibitors, dose response, biochemical, luminescence (AID 651677)).
Chain of Perilipin-5 (Homo sapiens) + 1-acylglycerol-3-phosphate O-acyltransferase ABHD5 (Homo sapiens) (Q00G26 whole entry, looked up): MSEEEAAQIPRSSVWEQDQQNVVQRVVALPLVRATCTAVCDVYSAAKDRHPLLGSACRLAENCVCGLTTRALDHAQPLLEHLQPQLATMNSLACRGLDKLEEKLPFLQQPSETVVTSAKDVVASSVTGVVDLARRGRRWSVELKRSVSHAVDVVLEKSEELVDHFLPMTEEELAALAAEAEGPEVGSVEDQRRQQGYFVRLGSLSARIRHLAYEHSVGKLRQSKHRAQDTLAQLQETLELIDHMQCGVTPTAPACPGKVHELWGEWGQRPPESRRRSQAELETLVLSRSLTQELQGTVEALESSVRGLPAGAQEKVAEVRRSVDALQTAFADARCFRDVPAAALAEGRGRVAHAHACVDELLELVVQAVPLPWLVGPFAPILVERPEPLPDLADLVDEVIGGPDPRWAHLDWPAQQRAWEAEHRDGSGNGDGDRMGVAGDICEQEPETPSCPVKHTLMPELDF
Chain of Perilipin-5 (Homo sapiens) + 1-acylglycerol-3-phosphate O-acyltransferase ABHD5 (Homo sapiens) (Q8WTS1 whole entry, looked up): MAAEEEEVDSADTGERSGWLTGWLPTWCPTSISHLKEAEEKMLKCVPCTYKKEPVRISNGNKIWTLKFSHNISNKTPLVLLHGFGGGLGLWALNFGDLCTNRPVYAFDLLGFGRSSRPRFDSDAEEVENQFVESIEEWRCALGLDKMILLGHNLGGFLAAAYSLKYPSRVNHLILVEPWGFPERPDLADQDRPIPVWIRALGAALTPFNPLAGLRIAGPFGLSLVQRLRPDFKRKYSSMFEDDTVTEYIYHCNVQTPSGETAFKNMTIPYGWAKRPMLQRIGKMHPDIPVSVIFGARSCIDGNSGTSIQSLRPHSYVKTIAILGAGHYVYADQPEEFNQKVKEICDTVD
`CCCCCNC(=O)C(c1ccccc1F)n1c(=O)c(-c2ccco2)nc2ccccc21` (centres undefined) showed an IC50 of 0.862 µM. `CCCCCNC(=O)C(c1ccc(OC)cc1)n1c(=O)c(-c2ccco2)nc2ccccc21` (centres undefined) gave an IC50 of 2.18 µM. Work on `Cc1ccc(C)c(/C=C/C(=O)c2ccccc(=O)c2O)c1` yielded an IC50 of 4.05 µM. With `CN(C)CCOc1ccc(-c2c(-c3ccccc3)sc3ccccc23)cc1` the IC50 was “inactive”. With `O=C(CF)N(O)c1ccc(C=Cc2ccccc2)cc1` the IC50 was > 39.9 µM (inactive). For `CCOC(=O)C1CCCN(C(=O)c2cc(Nc3ccc(OC)cc3)nc3ccccc23)C1` (centres undefined), the IC50 was “inactive”. `CCN(CC)CCOc1ccc(/C(=C(\Cl)c2ccccc2)c2ccccc2)cc1` gave an IC50 of 2.47 µM. `COc1ccc(C(C(=O)NC(C)(C)C)n2c(=O)c(-c3ccco3)nc3ccccc32)cc1` (centres undefined) showed an IC50 of 1.69 µM. With `CC(C)c1nnc(NC(=O)c2nc(S(=O)(=O)Cc3ccc(F)cc3)ncc2Cl)s1` the IC50 was 1.94 µM. `C#CCN(C[C@@H]1[C@@H](OC(=O)NC2CCCC2)[C@@H](OC(=O)NC2CCCC2)Cn2c(=O)ccc(=O)n21)S(=O)(=O)c1ccc(C)cc1` gave an IC50 of 3.69 µM. For `C#CCN(C[C@@H]1[C@@H](OC(=O)NCc2ccc(OC)c(OC)c2)[C@@H](OC(=O)NCc2ccc(OC)c(OC)c2)Cn2c(=O)ccc(=O)n21)S(=O)(=O)c1ccc(C)cc1`, the IC50 was 5.25 µM. Work on `O=C(/C=C/Sc1ccccc1)c1ccc(Cl)cc1` yielded an IC50 of 3.38 µM. With `CCN(CCCc1ccccc1)CCCc1ccccc1` the IC50 was 2.66 µM. `O=C(/C(=C/c1ccccc1)n1cncn1)c1ccc(Cl)cc1Cl` gave an IC50 of 2.49 µM. For `CC(C)(C)NC(=O)C(c1ccncc1)n1c(=O)c(-c2ccco2)nc2ccccc21` (centres undefined), the IC50 was 3.66 µM. `CN1CCC[C@@H]1CCO[C@](C)(c1ccccc1)c1ccc(Cl)cc1` was tested, and the IC50 was “inactive”. Compound `CCC(C(=O)OCCN(CC)CC)c1ccccc1` (centres undefined) has an IC50 of 2.55 µM. `CCCCOC(=O)Nc1cc(C(=O)OC)ccc1C(=O)OC` gave an IC50 of 6.7 µM. Work on `CC(C)(C)NC(=O)C(c1ccccc1)n1c(=O)c(-c2ccco2)nc2ccccc21` (centres undefined) yielded an IC50 of 2.16 µM. With `Cc1cc(C)c(NC(=O)CN2CCN3CCCC3C2)c(C)c1` (centres undefined) the IC50 was 9.27 µM. In the case of `CN(C)CCOC1(Cc2ccc(F)cc2)CCC(C(C)(C)C)CC1` (centres undefined), the IC50 is reported as 7.33 µM. `CCCNC(=O)Nc1ccc2c(c1)N(C)C(=O)c1ccccc1S2` showed an IC50 of 8.61 µM. `Cc1cccc(C)c1NC(=O)C(c1ccccc1)n1c(=O)c(-c2ccco2)nc2ccccc21` (centres undefined) was tested, and the IC50 was 5.19 µM. With `CN(C)CCN(Cc1ccco1)c1ccccn1` the IC50 was 7.75 µM. In the case of `CCOC(=O)c1c(NC(C)=O)sc2c1CCC(C=O)=C2Sc1ccccc1`, the IC50 is reported as 2.4 µM. Work on `CCOC(=O)c1c(C)oc2c1c(CN1CCN(CCO)CC1)c(O)c1ccccc12` yielded an IC50 of 1.81 µM. Work on `CCCCCNC(=O)C(c1cc2ccccc2o1)n1c(=O)c(-c2ccco2)nc2ccccc21` (centres undefined) yielded an IC50 of 1.16 µM. `COc1ccccc1/C=C/C(=O)c1ccccc1` was tested, and the IC50 was 6.63 µM. `Cc1cccc(C)c1NC(=O)C(c1ccc(-c2ccccc2)cc1)n1c(=O)c(-c2ccco2)nc2ccccc21` (centres undefined) gave an IC50 of 1.33 µM. `COc1cc(C(C)=O)ccc1OCc1cn(CC(=O)c2ccc(O)cc2)nn1` was tested, and the IC50 was 4.43 µM. In the case of `Cc1cc(C)c2nc(NNC(=O)c3ccc(S(=O)(=O)N4CCCC(C)C4)cc3)sc2c1` (centres undefined), the IC50 is reported as 5.27 µM. With `CC(C)(C)NC(=O)C(c1ccc(C#N)cc1)n1c(=O)c(-c2ccco2)nc2ccccc21` (centres undefined) the IC50 was 1.85 µM. Compound `O=C(NC1CCCCC1)C(c1cccc2ccccc12)n1c(=O)c(-c2ccco2)nc2ccccc21` (centres undefined) has an IC50 of 0.94 µM. With `O=C(Nc1ccc2c(c1)OCCO2)C(c1ccnc2ccccc12)n1c(=O)c(-c2ccco2)nc2ccccc21` (centres undefined) the IC50 was “inactive”. `COc1cc(/C=C/C(=O)c2ccc(Cl)s2)cc(OC)c1O` showed an IC50 of 4.48 µM. `CC(=O)Oc1c(Cl)cc(N(C(C)=O)S(=O)(=O)c2ccccc2)c2ccccc12` was tested, and the IC50 was 6.55 µM. `Cc1ccc(C(=O)c2c(C)oc3c2C(=O)C(=O)c2ccccc2-3)cc1` was tested, and the IC50 was 3.82 µM. With `CCCCNC(=O)Nc1ccc2c(c1)N(C)C(=O)c1ccccc1S2` the IC50 was 4.08 µM. `CCCCCNC(=O)C(c1ccc(C#N)cc1)n1c(=O)c(-c2ccco2)nc2ccccc21` (centres undefined) showed an IC50 of 3.15 µM. In the case of `O=C(NC1CCCCC1)C(c1ccnc2ccccc12)n1c(=O)c(-c2ccco2)nc2ccccc21` (centres undefined), the IC50 is reported as 1.66 µM. `CCN1CCN(Cc2ccc(NC(=O)c3ccc(C)c(/C=C/c4cnc(Nc5cc(N6CCNCC6)nc(C)n5)cn4)c3)cc2C(F)(F)F)CC1` gave an IC50 of 2.58 µM. `CCc1nnc(NC(=O)c2nc(S(=O)(=O)Cc3cccc(C)c3)ncc2Cl)s1` showed an IC50 of 3.33 µM. With `CCN(CC)CCN(CC(=O)Nc1c(C)cc(C)cc1C)C(=O)c1ccccc1` the IC50 was 9.74 µM. In the case of `O=C1NC(=O)N(Cc2ccccc2)C(=O)/C1=C\C=C\c1ccco1`, the IC50 is reported as 1.32 µM. Compound `CCOC1=CC2=C(C(=O)C(Cl)=CC2=O)[C@@H]2CN(S(=O)(=O)c3ccc(C)cc3)[C@@H](c3ccccc3)[C@H]12` has an IC50 of 0.941 µM. `O=C(/C=C/c1ccc(NC(=O)c2ccccc2-c2ccccc2C(=O)O)cc1)c1ccccc1` showed an IC50 of 7.14 µM. With `Cc1cccc(C)c1NC(=O)C(c1ccncc1)n1c(=O)c(-c2ccco2)nc2ccccc21` (centres undefined) the IC50 was “inactive”. `CC1=CC(C)(C)Nc2ccc(OC(=O)C(C)N3C(=O)c4ccccc4C3=O)cc21` (centres undefined) showed an IC50 of 2.64 µM. Work on `CCC(=O)Nc1cccc(C(=O)/C=C/c2ccccc2)c1` yielded an IC50 of 2.71 µM. In the case of `CN(C)CCOc1ccc(/C(=C(/CCCl)c2ccccc2)c2ccccc2)cc1`, the IC50 is reported as 1.38 µM. Compound `CC(=O)OCC1=C(C(=O)O)N2C(=O)C(NC(=O)CCn3nc(C(F)(F)F)c(Br)c3C3CC3)C2SC1` (centres undefined) has an IC50 of 5.24 µM. Work on `CC(C)(C)NC(=O)C(c1ccc(-c2ccccc2)cc1)n1c(=O)c(-c2ccco2)nc2ccccc21` (centres undefined) yielded an IC50 of 1.29 µM. For `c1ccc(CCC2=NCCn3cccc32)cc1`, the IC50 was “inactive”. `Cc1cccc(C)c1OCc1cn(CC(=O)c2ccc(O)cc2)nn1` showed an IC50 of 2.83 µM. In the case of `O=C(NC1CCCCC1)C(c1ccc(C(F)(F)F)cc1)n1c(=O)c(-c2ccco2)nc2ccccc21` (centres undefined), the IC50 is reported as 1.25 µM. Compound `CCSc1nnc(NC(=O)c2nc(S(=O)(=O)Cc3ccc(F)cc3)ncc2Cl)s1` has an IC50 of 2.36 µM. `O=C(Nc1ccc(Cl)cc1)/C(=C/c1cccc(O)c1)c1nc2ccccc2s1` was tested, and the IC50 was 2.1 µM. With `CCCC(=O)NC(c1cccc([N+](=O)[O-])c1)c1ccc2cccnc2c1O` (centres undefined) the IC50 was > 39.8 µM (inactive). In the case of `Cc1ccc(O)c(C(=O)C=Cc2ccccc2)c1`, the IC50 is reported as 3.14 µM.
